Data set [1] concerns Neisseria gonorrhoeae, GC525 (NG-2888). Put plainly: in-vitro antibacterial activity, microbroth dilution MIC susceptibility testing. In kind it is cell-based. On the set-up: unit: ug/mL. The note with it: microbroth dilution in gonococcal broth, 20-24 hours at 35 C, lowest concentration preventing visible growth. The gist of the method: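 Broth microdilution in gonococcal broth, inoculum ~5×10^5 cfu/mL, 20-24 h at 35 C in humidified CO2; compounds from 2 mg/mL DMSO stocks over 64-0.06 and 1-0.001 ug/mL two-fold series. MIC is the lowest concentration preventing visible growth, read visually; duplicates differing one well give the lower value, two wells the middle value.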

Where [2] appears, read: Neisseria gonorrhoeae, read-out: MIC.

Values after ≈ are worked out from the molar mass of the structure shown. Like-named read-outs stand apart in the source and are kept apart here.

One may read the melting point as the temperature of the solid-liquid transition. Broadly, the MIC is the lowest concentration found to suppress growth. Molecule `CCNC(=O)Nc1nc2cc(-c3cccnc3)ccn2n1` [Example 1, 1-Ethyl-3-(7-pyridin-3-yl-[1,2,4]triazolo[1,5-a]pyridin-2-yl)-urea] registered a melting point of 230 to 233 °C. Besides, the MIC in data set [1] (setting [2]) amounted to 32 µg/mL (≈ 113 µM).
The molecule `CCNC(=O)Nc1nc2cc(-c3ccc(OC)nc3)ccn2n1` [Example 2, 1-Ethyl-3-[7-(6-methoxy-pyridin-3-yl)-[1,2,4]triazolo[1,5-a]pyridin-2-yl]-urea] gave a melting point of 230 to 233 °C. Besides, the MIC in data set [1] (setting [2]) is more than 64 µg/mL.
For the molecule `CCNC(=O)Nc1nc2cc(-c3cnc(OC)nc3)ccn2n1` [Example 3, 1-Ethyl-3-[7-(2-methoxy-pyrimidin-5-yl)-[1,2,4]triazolo[1,5-a]pyridin-2-yl]-urea], the melting point was 243 to 248 °C. Moreover, in data set [1] (setting [2]), the minimum inhibitory concentration (MIC) is more than 64 µg/mL.
With `CCNC(=O)Nc1nc2cc(-c3cccnc3)cc(C(=O)OC)n2n1` [Example 6, 2-(3-Ethyl-ureido)-7-pyridin-3-yl-[1,2,4]triazolo[1,5-a]pyridine-5-carboxylic acid methyl ester], the melting point fell in the range of 211 to 213 °C. Besides, the MIC in data set [1] (setting [2]) is 16 µg/mL (≈ 47 µM).
Molecule `CCNC(=O)Nc1nc2cc(-c3cccnc3)cc(C(=O)NC)n2n1` [Example 7, 2-(3-Ethyl-ureido)-7-pyridin-3-yl-[1,2,4]triazolo[1,5-a]pyridine-5-carboxylic acid methylamide] had a melting point of more than 300 °C. Further, in data set [1] (setting [2]), the MIC came out at 2 µg/mL (≈ 5.89 µM).
In turn, `CCNC(=O)Nc1nc2cc(-c3cccnc3)cc(C(=O)OCC)n2n1` [Example 16, 2-(3-ethyl-ureido)-7-pyridin-3-yl-[1,2,4]triazolo[1,5-a]pyridine-5-carboxylic acid ethyl ester] showed a melting point of 242 to 245 °C.
For the molecule `CCNC(=O)Nc1nc2cc(-c3cccnc3)cc(-c3nc(C)no3)n2n1` [Example 18, 1-Ethyl-3-[5-(3-methyl-[1,2,4]oxadiazol-5-yl)-7-pyridin-3-yl-[1,2,4]triazolo[1,5-a]pyridin-2-yl]-urea], the melting point is 298 to 301 °C.
As to `CCNC(=O)Nc1nc2cc(-c3cncnc3)cc(C(=O)NCC)n2n1` [Example 19, N-Ethyl-2-{[(ethylamino)carbonyl]amino}-7-pyrimidin-5-yl[1,2,4]triazolo[1,5-a]pyridine-5-carboxamide], the melting point fell in the range of 317 to 321 °C. In data set [1] (setting [2]), the MIC amounted to 1 µg/mL (≈ 2.82 µM).
In turn, `CCNC(=O)Nc1nc2cc(-c3cnc(N(C)C)nc3)cc(C(=O)NCC)n2n1` [Example 20, 7-[2-(Dimethylamino)pyrimidin-5-yl]-N-ethyl-2-{[(ethylamino)carbonyl]amino}[1,2,4]triazolo[1,5-a]pyridine-5-carboxamide] displayed a melting point of 328 to 334 °C. Also, in data set [1] (setting [2]), the MIC is 1 µg/mL (≈ 2.52 µM).
In turn, `CCNC(=O)Nc1nc2cc(-c3c(C)noc3C)cc(C(=O)NCC)n2n1` [Example 21, 7-(3,5-Dimethylisoxazol-4-yl)-N-ethyl-2-{[(ethylamino)carbonyl]amino}[1,2,4]triazolo[1,5-a]pyridine-5-carboxamide] yielded a melting point of 238 to 241 °C. Besides, the MIC in data set [1] (setting [2]) is more than 64 µg/mL.
Regarding `CCNC(=O)Nc1nc2cc(-c3cccnc3)cc(-c3nnc(C)o3)n2n1` [Example 23, N-Ethyl-N′-[5-(5-methyl-1,3,4-oxadiazol-2-yl)-7-pyridin-3-yl[1,2,4]triazolo[1,5-a]pyridin-2-yl]urea], the melting point lay within 318 to 321 °C. The MIC in data set [1] (setting [2]) was more than 64 µg/mL.
On the same counts, the results for `CCNC(=O)Nc1nc2cc(-c3cccnc3)cc(N3CCC(N(C)C)C3)n2n1` (stereo not shown) [Example 130, 1-[5-(3-Dimethylamino-pyrrolidin-1-yl)-7-pyridin-3-yl-[1,2,4]triazolo[1,5-a]pyridin-2-yl]-3-ethyl-urea] are 248 to 250 °C and 16 µg/mL (≈ 40.6 µM).
Turning to `CCNC(=O)Nc1nc2cc(-c3cccnc3)cc(N3CCN(C)CC3)n2n1` [Example 131, 1-Ethyl-3-[5-(4-methyl-piperazin-1-yl)-7-pyridin-3-yl-[1,2,4]triazolo[1,5-a]pyridin-2-yl]-urea], in data set [1] (setting [2]), the MIC is 32 µg/mL (≈ 84.1 µM).
Same read-out and setting: then `CCNC(=O)Nc1nc2cc(-c3cccnc3)cc(-c3cnc(C)s3)n2n1` [Example 132, 1-Ethyl-3-[5-(2-methyl-thiazol-5-yl)-7-pyridin-3-yl-[1,2,4]triazolo[1,5-a]pyridin-2-yl]-urea], with 2 µg/mL (≈ 5.27 µM).
`CCNC(=O)Nc1nc2cc(-c3cccnc3)cc(N3CCOCC3)n2n1` [Example 133, 1-Ethyl-3-(5-morpholin-4-yl-7-pyridin-3-yl-[1,2,4]triazolo[1,5-a]pyridin-2-yl)-urea]: the melting point lay in the range of 298 to 300 °C. Besides, the MIC in data set [1] (setting [2]) is 0.25 µg/mL (≈ 0.68 µM).
The like results for `CCNC(=O)Nc1nc2cc(-c3cccnc3)cc(N3CCC(O)C3)n2n1` (stereo not shown) [Example 134, 1-Ethyl-3-[5-(3-hydroxy-pyrrolidin-1-yl)-7-pyridin-3-yl-[1,2,4]triazolo[1,5-a]pyridin-2-yl]-urea] were, in that order, 296 to 298 °C and 32 µg/mL (≈ 87.1 µM).
As to `CCNC(=O)Nc1nc2cc(-c3cccnc3)cc(-c3cnc(C)n3C)n2n1` [Example 135, N-[5-(1,2-Dimethyl-1H-imidazol-5-yl)-7-pyridin-3-yl[1,2,4]triazolo[1,5-a]pyridin-2-yl]-N′-ethylurea], the MIC in data set [1] (setting [2]) is 8 µg/mL (≈ 21.3 µM).
With `CCNC(=O)Nc1nc2cc(-c3cccnc3)cc(-c3cncn3C)n2n1` [Example 136, N-ethyl-N′-[5-(1-methyl-1H-imidazol-5-yl]-7-pyridin-3-yl[1,2,4]triazolo[1,5-a]pyridin-2-yl]urea], the MIC in data set [1] (setting [2]) came to 4 µg/mL (≈ 11 µM).
Consider `CCNC(=O)Nc1nc2cc(-c3cccnc3)cc(N(C)C3CCCCC3)n2n1` [Example 137, N-[5-[Cyclohexyl(methyl)amino]-7-pyridin-3-yl[1,2,4]triazolo[1,5-a]pyridin-2-yl]-N′-ethylurea], for which the MIC in data set [1] (setting [2]) was found to be 32 µg/mL (≈ 81.3 µM).
With `CCNC(=O)Nc1nc2cc(-c3cccnc3)cc(NC3CCCCC3)n2n1` [Example 138, 1-(5-Cyclohexylamino-7-pyridin-3-yl-[1,2,4]triazolo[1,5-a]pyridin-2-yl)-3-ethyl-urea], the MIC in data set [1] (setting [2]) was 0.5 µg/mL (≈ 1.32 µM).
In the case of `CCNC(=O)Nc1nc2cc(-c3cccnc3)cc(-c3cnc(CC)o3)n2n1` [Example 139, N-Ethyl-N′-[5-(2-ethyl-1,3-oxazol-5-yl)-7-pyridin-3-yl[1,2,4]triazolo[1,5-a]pyridin-2-yl]urea], the minimum inhibitory concentration (MIC) in data set [1] (setting [2]) stood at 1 µg/mL (≈ 2.65 µM).
For the molecule `CCNC(=O)Nc1nc2cc(-c3cccnc3)cc(-c3cnc(C(C)C)s3)n2n1` [Example 140, 1-Ethyl-3-[5-(2-i-propyl-thiazol-5-yl)-7-pyridin-3-yl-[1,2,4]triazolo[1,5-a]pyridin-2-yl]-urea], the MIC in data set [1] (setting [2]) was determined as 64 µg/mL (≈ 157 µM).
The molecule `CCNC(=O)Nc1nc2cc(-c3cccnc3)cc(OCCN(C)C)n2n1` [Example 141, 1-[5-(2-Dimethylamino-ethoxy)-7-pyridin-3-yl-[1,2,4]triazolo[1,5-a]pyridin-2-yl]-3-ethyl-urea] registered a melting point of 200 to 202 °C. For the same molecule, in data set [1] (setting [2]), the MIC turned out to be 32 µg/mL (≈ 86.6 µM).
Turning to `CCNC(=O)Nc1nc2cc(-c3cccnc3)cc(-c3ccc(OC)nc3)n2n1` [Example 142, N-Ethyl-N′-[5-(6-methoxypyridin-3-yl)-7-pyridin-3-yl[1,2,4]triazolo[1,5-a]pyridin-2-yl]urea], the MIC in data set [1] (setting [2]) is 16 µg/mL (≈ 41.1 µM).
Still for that read-out and setting: the figure for `CCNC(=O)Nc1nc2cc(-c3cccnc3)cc(OCCN3CCCCC3)n2n1` [Example 144, 1-Ethyl-3-[5-(2-piperidin-1-yl-ethoxy)-7-pyridin-3-yl-[1,2,4]triazolo[1,5-a]pyridin-2-yl]-urea] is 32 µg/mL (≈ 78.1 µM).
On the same count and under the same terms, then `CCNC(=O)Nc1nc2cc(-c3cccnc3)cc(N3CCNCC3)n2n1` [Example 146, 1-Ethyl-3-(5-piperazin-1-yl-7-pyridin-3-yl-[1,2,4]triazolo[1,5-a]pyridin-2-yl)-urea], with 32 µg/mL (≈ 87.3 µM).
`CCNC(=O)c1cc(-c2cccnc2)cc2nc(NS(C)(=O)=O)nn12` [Example 147, 2-N-Methylsulfonylamino-7-pyridin-3-yl-[1,2,4]triazolo[1,5-a]pyridin-5-carboxylic acid ethyl amide] gave an MIC in data set [1] of 4.00 µg/mL (≈ 11.1 µM).
Turning to `CCNC(=O)Nc1nc2cc(-c3cccnc3)cc(-c3oc(C)nc3C)n2n1` [Example 148, N-[5-(2,4-Dimethyl-1,3-oxazol-5-yl)-7-pyridin-3-yl[1,2,4]triazolo[1,5-a]pyridin-2-yl]-N′-ethylurea], the MIC in data set [1] (setting [2]) amounted to 4 µg/mL (≈ 10.6 µM).
`CCNC(=O)Nc1nc2cc(-c3ccc(OC)nc3)cc(-c3cnc(C)o3)n2n1` [Example 149, 1-Ethyl-3-[7-(6-methoxy-pyridin-3-yl)-5-(2-methyl-oxazol-5-yl)-[1,2,4]triazolo[1,5-a]pyridin-2-yl]-urea]: the MIC in data set [1] (setting [2]) was 16 µg/mL (≈ 40.7 µM).
Take `CCNC(=O)Nc1nc2cc(-c3cccnc3)cc(N(C)C3CCN(C)C3)n2n1` (stereo not shown) [Example 150, 1-Ethyl-3-(5-[methyl-(1-methyl-pyrrolidin-3-yl)-amino]-7-pyridin-3-yl-[1,2,4]triazolo[1,5-a]pyridin-2-yl)-urea]: in data set [1] (setting [2]), the MIC was 32 µg/mL (≈ 81.1 µM).
In data set [1], `CCNC(=O)c1cc(-c2cccnc2)cc2nc(NS(=O)(=O)CC)nn12` [Example 151, 2-N-ethylsulfonylamino-7-pyridin-3-yl-[1,2,4]triazolo[1,5-a]pyridin-5-carboxylic acid ethyl amide] yielded an MIC of 32.0 µg/mL (≈ 85.5 µM).
For the molecule `CCNC(=O)Nc1nc2cc(-c3cccnc3)cc(NC3CCN(C)CC3)n2n1` [Example 152, 1-Ethyl-3-[5-(1-methyl-piperidin-4-ylamino)-7-pyridin-3-yl[1,2,4]triazolo[1,5-a]pyridin-2-yl]-urea], in data set [1] (setting [2]), the MIC was 8 µg/mL (≈ 20.3 µM).
“N-Methyl-N′-[5-(3-methylpyridin-2-yl)-7-pyridin-3-yl[1,2,4]triazolo[1,5-a]pyridin-2-yl]urea [Example 145]” returned a minimum inhibitory concentration (MIC) in data set [1] of 16.0 µg/mL.

The values are drawn from patent publication US7524860B2, “Antibacterial agents” (Pfizer Inc., priority 2004, dated 2009).
